Where two headings read alike, the source gives them in different places. Ends that are not written are not given here.
Key:
HIV-1-LAI = assay type: cell-based; settings: for IC50: -LAI; for fold higher antiviral activity than AZT: associated to the carrier peptide VEPEP-3; for anti viral activity: scrambled peptides
Method: Adherent HS68 fibroblasts, HeLa, PC3, MCF-7, SCK3-Her2, PBMC cell lines (from American Type Culture Collection (ATCC)) were cultured in Dulbecco's Modified Eagle's Medium supplemented with 2 mM glutamine, 1% antibiotics (streptomycin 10,000 μg/ml, penicillin, 10,000 IU/ml) and 10% (w/v) foetal calf serum (FCS), at 37° C. in a humidified atmosphere containing 5% CO2. Stock solutions of VEPEP-3/peptide particles were prepared by complexing 1 μM peptide with VEPEP-3 peptides at a molar ratio of 1/20 for 30 min at 37° C. Lower concentrations of VEPEP-3-carrier/peptide (from 500 nM to […]) were obtained by serial dilution of the stock complexes in PBS, in order to preserve the same VEPEP-3-carrier/peptide ratio. 150,000 cells seeded in a 35 mm dish the day prior transfection, were grown to 60% confluence and overlaid with 200 μl of preformed complexes, incubated for 3-5 min, then 400 μl of DMEM were added. After 30 min. incubation at 37° C., 1 ml of fresh DMEM containing 16% foetal calf serum (FCS) was added in order to reach a final FCS concentration of 10%, without removing the overlay of VEPEP-3/peptide complexes. Cells were returned to the incubator for 24 hrs. For cdk4 and CDK2 derived peptides cell proliferation was monitored after 24 and 48 hrs. For peptide-targeting integrase, HIV proliferation was analyzed on activated PBMC cells after 3 and 5 days. Data reported are an average of 3 or 4 distinct experiments.
The anti-HIV activities of the peptides (PC4D, PC6D & PC4S) and VEPEP-3/peptides were assayed according to previously described method (Roisin et al, 2004). Phytohemagglutinin-P (PHA-P)-activated peripheral blood mononuclear cells (PBMC) treated by increasing concentrations of peptide (from 100 to 0.1 nM), one hour later, were infected with hundred 50% tissue culture infectious doses (TCID50) per 100,000 cells of the HIV-1-LAI or different resistant strains (Barre-Sinoussi et al, 1983). Viruses were amplified in vitro on PHA-P-activated PBMC. Viral stock was titrated using PHA-P-activated PBMC, and 50% TCID50 were calculated using Karber's formula (Karber 1931). Samples were maintained throughout the culture, and cell supernatants were collected at day 7 post-infection and stored at −20 C. Viral replication was measured by quantifying RT activity in cell culture supernatants. In parallel, cytotoxicity of the compounds was evaluated in uninfected PHA-P-activated PBMC by colorimetric 3-(4-5 dimethylthiazol-2-yl)2,5 diphenyl tetrazolium bromite (MTT) assay on day 7 (Mossmann 1983). Experiments were performed in triplicate and repeated with another blood donor. Data analyses were performed using SoftMax® Pro 4.6 microcomputer software: percent of inhibition of RT activity or of cell viability were plotted vs. concentration and fitted with quadratic curves; 50% effective doses (ED50) and cytotoxic doses (CD50) were calculated.

MCF7 = assay: Inhibition of cancer cell proliferation by delivered small molecule drugs; assay type: cell-based; settings: Homo sapiens
Method: (§4) Adherent HS68 fibroblasts, HeLa, PC3, MCF-7, SCK3-Her2, PBMC cell lines (from American Type Culture Collection (ATCC)) were cultured in Dulbecco's Modified Eagle's Medium supplemented with 2 mM glutamine, 1% antibiotics (streptomycin 10,000 μg/ml, penicillin, 10,000 IU/ml) and 10% (w/v) foetal calf serum (FCS), at 37° C. in a humidified atmosphere containing 5% CO2. […] 150,000 cells seeded in a 35 mm dish the day prior transfection, were grown to 60% confluence and overlaid with 200 μl of preformed complexes, incubated for 3-5 min, then 400 μl of DMEM were added. After 30 min. incubation at 37° C., 1 ml of fresh DMEM containing 16% foetal calf serum (FCS) was added in order to reach a final FCS concentration of 10%, without removing the overlay of VEPEP-3/peptide complexes. Cells were returned to the incubator for 24 hrs. […] Data reported are an average of 3 or 4 distinct experiments.

SKB3 = assay: as above; assay type: cell-based
Method: as §4

PNA (15 mer-PNA) = assay: Fluorescence titration, VEPEP-3/cargo binding: PNA; settings: cargo: 15 mer-PNA
Method: (§1) Fluorescence experiments were performed on a PTI spectrofluorimeter at 25° C. in a NaCl 154 mM buffer. Intrinsic Trp-fluorescence of VEPEP-3 was excited at 290 nm and emission spectrum was recorded between 310 and 400 nm, with a spectral band-pass of 2 and 8 nm for excitation and emission, respectively. FITC-fluorescence of labelled-peptide was excited at 492 nm and emission recorded between 500 and 580 nm. For VEPEP-3/peptide interaction, 0.5 μM of FITC-labelled peptide was titrated by increasing concentrations of VEPEP-3. All measurements were corrected for the dilution and curve fitting were performed by using Grafit software (Erithacus).
(§2) VEPEP-3 peptides also form stable particles with small aromatic molecules including Daunomycin, Paclitaxel, doxorubicin, porphyrin and charged molecules including nucleotide, nucleoside and peptide-analog of nucleic acids or fluorescent dyes (FIGS. 1A-1C). The dissociation constant for small hydrophobic molecule ranges between 0.05 to 2 μM, depending on the nature of the dyes and of the peptides.

protein (GFP & Nanobody) = assay: Fluorescence titration, VEPEP-3/cargo binding: protein; settings: cargo: protein (GFP & Nanobody)
Method: as §1
(§3) VEPEP-3 peptide form stable complexes with peptides and proteins. The binding of cargos to VEPEP-3 was monitored by fluorescence spectroscopy using the […] intrinsic Trp groups of VEPEP-3 (3 to 5 Trp-residues) and extrinsic fluorescently labelled cargoes (using Cy3, Cy5 or FITC). Curve fitting reveal that VEPEP-3 strongly binds the different cargoes with dissociation constant in the nanomolar range (examples with VEPEP-3a, VEPEP-3C, and VEPEP-3g and three different cargoes are reported in FIGS. 1A-1C, all the data are reported in Table 1).

Cyclic peptide (PC4) = assay: Fluorescence titration, VEPEP-3/cargo binding: cyclic peptide; settings: cargo: Cyclic peptide (PC4)
Method: as §1, §3

Peptide (C4 and C2) = assay: Fluorescence titration, VEPEP-3/cargo binding: peptide
Method: as §1, §3

[1] = Fluorescence titration, VEPEP-3/cargo binding: small hydrophobic molecule; settings: cargo: Doxorubicine; for Kd: read-out: Kd, SHM
Method: as §1, §2

HeLa and U2OS cells = assay: Toxicity of VEPEP-3 particles, MTT assay and cyclophilin mRNA level; settings: complexed with short peptide and PNA at ratio 1/20
Method: Toxicity of VEPEP-3/peptide or VEPEP-3/protein complexes was investigated on Hela and HS-68 cell lines. 30,000 cells seeded in 24-well plated the day prior transfection, were incubated with increasing concentrations of peptide or protein complexed with VEPEP-3 at a 20/1 molar ratio ranging from 1 to 5 μM ([…]), for 30 min prior to addition of medium to reach a final 10% concentration of FCS. Cytotoxic response was measured 12 hr or 24 hr later by monitoring the housekeeping gene cyclophilin mRNA level (Quantigen, Panomic Inc.) and by colorimetric MTT assay (Sigma, Germany), respectively. For MTT assay, cell culture medium was removed and replaced with PBS containing 2.5 mg/ml of MTT for 4 hr. Results correspond to the average of 3 separate experiments.

[2] = drug complexed with VEPEP-3a 1/20, read-out: VEPEP-3a 1/20 IC50
[3] = drug complexed with VEPEP-3g 1/20, read-out: VEPEP-3g 1/20 IC50
[4] = SKB3, drug complexed with VEPEP-3a 1/20, read-out: VEPEP-3a 1/20 IC50
[5] = SKB3, drug complexed with VEPEP-3g 1/20, read-out: VEPEP-3g 1/20 IC50
[6] = SKB3, free drug, read-out: Free drug IC50

| Compound | Binding, PNA (PNA (15 mer-PNA)) | Binding, Protein (protein (GFP & Nanobody)) | Kd (protein (GFP & Nanobody)) | Binding, Cyclic peptide (Cyclic peptide (PC4)) | Binding, peptide (Peptide (C4 and C2)) | Kd (Peptide (C4 and C2)) | Binding, SHM [1] | Kd [1] | toxicity (HeLa and U2OS cells; levels up to 200 nM) | toxicity (HeLa and U2OS cells; maximum concentration of 1 μM) | other results |
| --- | --- | --- | --- | --- | --- | --- | --- | --- | --- | --- | --- |
| KWETWWET [PC6D, KWETWWET] | – | – | – | – | – | – | – | – | – | – | IC50 (HIV-1-LAI): 0.09 ± 0.05 nM; fold higher antiviral activity than AZT (HIV-1-LAI): 15 fold |
| COc1cccc2c1C(=O)c1c(O)c3c(c(O)c1C2=O)C[C@@](O)(C(=O)CO)C[C@@H]3O[C@H]1C[C@H](N)[C@H](O)[C@H](C)O1 [Doxo, doxorubicin] | – | – | – | – | – | – | – | – | – | – | IC50 (MCF7; [2]): 200 nM; IC50 (MCF7; drug complexed with VEPEP-3c 1/20, read-out: VEPEP-3c 1/20 IC50): 500 nM; IC50 (MCF7; [3]): 200 nM; IC50 (MCF7; free drug, read-out: Free drug IC50): 7000 nM; IC50 (SKB3; [4]): 300 nM; IC50 (SKB3; SKB3, drug complexed with VEPEP-3c 1/20, read-out: VEPEP-3c 1/20 IC50): 400 nM; IC50 (SKB3; [5]): 200 nM; IC50 (SKB3; [6]): 10000 nM; fold more efficient when complexed with VEPEP-3 (SKB3; complexed versus free): 25 fold; IC50 (SKB3; text of b118, cell line not stated, values match SKB3 line of Table 4, read-out: IC50, proliferation of cancer cells): 10000 nM |
| RWTEWEWW [PC4D, RWTEWEWW] | – | – | – | – | – | – | – | – | – | – | IC50 (HIV-1-LAI): 0.12 ± 0.05 nM; fold higher antiviral activity than AZT (HIV-1-LAI): 15 fold |
| TWFTEWFT (HELM PEPTIDE1{[ac].T.W.F.T.E.W.F.T.[SCCN[*:1]]}$$$$V2.0; SMILES CC(=O)N[C@H](C(=O)N[C@@H](Cc1c[nH]c2ccccc12)C(=O)N[C@@H](Cc1ccccc1)C(=O)N[C@H](C(=O)N[C@@H](CCC(=O)O)C(=O)N[C@@H](Cc1c[nH]c2ccccc12)C(=O)N[C@@H](Cc1ccccc1)C(=O)N[C@H](C(=O)NCCS)[C@@H](C)O)[C@@H](C)O)[C@@H](C)O) [PC4S] | – | – | – | – | – | – | – | – | – | – | anti viral activity (HIV-1-LAI): do not show any anti viral activity |
| X1LWWRRWWSRWWPRWRR [VEPEP-3f] | Yes | Yes | 20 to 100 nM | yes | yes | 10 to 20 nM | Yes | 20 nM | No toxicity | mild toxicity | – |
| X1LWWSRWWRSWFRLWFR [VEPEP-3g] | Yes | Yes | 20 to 100 nM | yes | yes | 10 to 20 nM | Yes | 20 nM | No toxicity | mild toxicity | – |
| CC(=O)O[C@H]1C(=O)[C@@]2(C)[C@H]([C@H](OC(=O)c3ccccc3)[C@]3(O)C[C@H](OC(=O)[C@H](O)[C@@H](NC(=O)c4ccccc4)c4ccccc4)C(C)=C1C3(C)C)[C@]1(OC(C)=O)CO[C@@H]1C[C@@H]2O [Taxol, taxol] | – | – | – | – | – | – | – | – | – | – | IC50 (MCF7; [2]): 200 nM; IC50 (MCF7; [3]): 700 nM; IC50 (SKB3; [4]): 500 nM; IC50 (SKB3; [5]): 800 nM; IC50 (SKB3; [6]): 9000 nM |
| KAETWAET (HELM PEPTIDE1{[ac].K.A.E.T.W.A.E.T.[SCCN[*:1]]}$$$$V2.0; SMILES CC(=O)N[C@@H](CCCCN)C(=O)N[C@@H](C)C(=O)N[C@@H](CCC(=O)O)C(=O)N[C@H](C(=O)N[C@@H](Cc1c[nH]c2ccccc12)C(=O)N[C@@H](C)C(=O)N[C@@H](CCC(=O)O)C(=O)N[C@H](C(=O)NCCS)[C@@H](C)O)[C@@H](C)O) [PC6S] | – | – | – | – | – | – | – | – | – | – | anti viral activity (HIV-1-LAI): do not show any anti viral activity |
| X1RWWRLWWRSWFRLWRR [VEPEP-3e] | Yes | Yes | 20 to 100 nM | yes | yes | 10 to 20 nM | Yes | 20 nM | No toxicity | mild toxicity | – |
| X1RWWEKWWTRWPRKRK [VEPEP-3c] | Yes | Yes | 200 nM | yes | yes | 10 to 20 nM | Yes | 200 nM | No toxicity | mild toxicity | Kd (PNA (15 mer-PNA)): 200 nM |
| X1RWYEKWYTEFPRRRR [VEPEP-3d] | Yes | Yes | 100 nM | yes | yes | 10 to 20 nM | Yes | 100 nM | No toxicity | mild toxicity | Kd (PNA (15 mer-PNA)): 100 nM |
| X1KWWERWWREWPRKRK [VEPEP-3b] | Yes | Yes | 500 nM | yes | yes | 10 to 20 nM | Yes | 500 nM | No toxicity | mild toxicity | Kd (PNA (15 mer-PNA)): 200 nM |
